Results: patent publication US8574563B2 (Bristol-Myers Squibb Company, priority 2006, dated 2013)

Test system: HCV 1b-377-neo replicon cells
Assay: HCV replicon assay, HCV 1b-377-neo replicon cells (1b FRET)
Type: cell-based, Hepatitis C virus genotype 1b
Conditions: Hepatitis C virus, HCV 1b-377-neo replicon cells; HCV 1b genotype; read-out: EC50 range against HCV 1b (Table 2, Range)
Procedure, shortened: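 Compounds were tested in genotype 1b subgenomic replicon cells carrying a neomycin marker, alongside a matched replicon line with an NS5A Y2065H substitution that confers resistance to a reference NS5A inhibitor.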

Row | SMILES | EC50 [nM]
1 | C[C@@H](c1ncc(-c2ccc(-c3ncc(-c4cnc([C@@H]5CCCN5C(=O)[C@@H](c5ccccc5)N5CCCCC5)[nH]4)cn3)cc2)[nH]1)N(C)C(=O)[C@@H](c1ccccc1)N1CCCCC1 [Example 152j-6, (2R)-N-methyl-2-phenyl-N-((1S)-1-(4-(4-(5-(2-((2S)-1-((2R)-2-phenyl-2-(1-piperidinyl)acetyl)-2-pyrrolidinyl)-1H-imidazol-5-yl)-2-pyrimidinyl)phenyl)-1H-imidazol-2-yl)ethyl)-2-(1-piperidinyl)acetamide] | 0.001 to 0.999
2 | CN(C)[C@@H](C(=O)N1CCC[C@H]1c1ncc(-c2ccc(-c3cnc(-c4cnc([C@@H]5CCCN5C(=O)[C@@H](c5ccccc5)N(C)C)[nH]4)cn3)cc2)[nH]1)c1ccccc1 [Example 152j-7, (1R)-2-((2S)-2-(5-(5-(4-(2-((2S)-1-((2R)-2-(dimethylamino)-2-phenylacetyl)-2-pyrrolidinyl)-1H-imidazol-5-yl)phenyl)-2-pyrazinyl)-1H-imidazol-2-yl)-1-pyrrolidinyl)-N,N-dimethyl-2-oxo-1-phenylethanamine] | 1 to 99
3 | COC(=O)N[C@@H](C(=O)N1CCC[C@H]1c1ncc(-c2ccc(-c3cnc(-c4cnc([C@@H]5CCCN5C(=O)[C@H](NC(=O)OC)c5ccccc5)[nH]4)cn3)cc2)[nH]1)c1ccccc1 [Example 152j-8, methyl ((1R)-2-((2S)-2-(5-(5-(4-(2-((2S)-1-((2R)-2-((methoxycarbonyl)amino)-2-phenylacetyl)-2-pyrrolidinyl)-1H-imidazol-5-yl)phenyl)-2-pyrazinyl)-1H-imidazol-2-yl)-1-pyrrolidinyl)-2-oxo-1-phenylethyl)carbamate] | 0.001 to 0.999
4 | CN(C)[C@@H](C(=O)N1CCC[C@H]1c1ncc(-c2ccc(-c3ccc(-c4cnc([C@@H]5CCCN5C(=O)[C@@H](c5ccccc5)N(C)C)[nH]4)nn3)cc2)[nH]1)c1ccccc1 [Example 152j-9, (1R)-2-((2S)-2-(5-(6-(4-(2-((2S)-1-((2R)-2-(dimethylamino)-2-phenylacetyl)-2-pyrrolidinyl)-1H-imidazol-5-yl)phenyl)-3-pyridazinyl)-1H-imidazol-2-yl)-1-pyrrolidinyl)-N,N-dimethyl-2-oxo-1-phenylethanamine] | 1 to 99
5 | COC(=O)N[C@@H](C(=O)N1CCC[C@H]1c1ncc(-c2ccc(-c3ccc(-c4cnc([C@@H]5CCCN5C(=O)[C@H](NC(=O)OC)c5ccccc5)[nH]4)nn3)cc2)[nH]1)c1ccccc1 [Example 152j-10] | 1 to 99
6 | C[C@H](NC(=O)[C@@H](c1ccccc1)N(C)C)c1ncc(-c2ccc(-c3ccc(-c4cnc([C@@H]5CCCN5C(=O)[C@@H](c5ccccc5)N(C)C)[nH]4)cn3)cc2)[nH]1 [Example 152j-11, (2R)-2-(dimethylamino)-N-((1S)-1-(5-(4-(5-(2-((2S)-1-((2R)-2-(dimethylamino)-2-phenylacetyl)-2-pyrrolidinyl)-1H-imidazol-5-yl)-2-pyridinyl)phenyl)-1H-imidazol-2-yl)ethyl)-2-phenylacetamide] | 0.001 to 0.999
7 | COC(=O)N[C@@H](C(=O)N[C@@H](C)c1ncc(-c2ccc(-c3ccc(-c4cnc([C@@H]5CCCN5C(=O)[C@H](NC(=O)OC)c5ccccc5)[nH]4)cn3)cc2)[nH]1)c1ccccc1 [Example 152j-12, methyl ((1R)-2-((2S)-2-(5-(6-(4-(2-((1S)-1-(((2R)-2-((methoxycarbonyl)amino)-2-phenylacetyl)amino)ethyl)-1H-imidazol-5-yl)phenyl)-3-pyridinyl)-1H-imidazol-2-yl)-1-pyrrolidinyl)-2-oxo-1-phenylethyl)carbamate] | 0.001 to 0.999
8 | C[C@H](NC(=O)[C@@H](c1ccccc1)N(C)C)c1ncc(-c2ccc(-c3ccc(-c4cnc([C@@H]5CCCN5C(=O)[C@@H](c5ccccc5)N(C)C)[nH]4)nn3)cc2)[nH]1 [Example 152j-13, (2R)-2-(dimethylamino)-N-((1S)-1-(5-(4-(6-(2-((2S)-1-((2R)-2-(dimethylamino)-2-phenylacetyl)-2-pyrrolidinyl)-1H-imidazol-5-yl)-3-pyridazinyl)phenyl)-1H-imidazol-2-yl)ethyl)-2-phenylacetamide] | 1 to 99
9 | COC(=O)N[C@@H](C(=O)N[C@@H](C)c1ncc(-c2ccc(-c3ccc(-c4cnc([C@@H]5CCCN5C(=O)[C@H](NC(=O)OC)c5ccccc5)[nH]4)nn3)cc2)[nH]1)c1ccccc1 [Example 152j-14, methyl ((1R)-2-((2S)-2-(5-(6-(4-(2-((1S)-1-(((2R)-2-((methoxycarbonyl)amino)-2-phenylacetyl)amino)ethyl)-1H-imidazol-5-yl)phenyl)-3-pyridazinyl)-1H-imidazol-2-yl)-1-pyrrolidinyl)-2-oxo-1-phenylethyl)carbamate] | 1 to 99
10 | COC(=O)N[C@@H](C(=O)N[C@@H](C)c1ncc(-c2ccc(-c3ncc(-c4cnc([C@@H]5CCCN5C(=O)[C@H](NC(=O)OC)c5ccccc5)[nH]4)cn3)cc2)[nH]1)c1ccccc1 [Example 152j-15, methyl ((1R)-2-((2S)-2-(5-(2-(4-(2-((1S)-1-(((2R)-2-((methoxycarbonyl)amino)-2-phenylacetyl)amino)ethyl)-1H-imidazol-5-yl)phenyl)-5-pyrimidinyl)-1H-imidazol-2-yl)-1-pyrrolidinyl)-2-oxo-1-phenylethyl)carbamate] | 0.001 to 0.999
11 | C[C@H](NC(=O)[C@@H](c1ccccc1)N(C)C)c1ncc(-c2cnc(-c3ccc(-c4cnc([C@@H]5CCCN5C(=O)[C@@H](c5ccccc5)N(C)C)[nH]4)cc3)nc2)[nH]1 [Example 152j-16, (2R)-2-(dimethylamino)-N-((1S)-1-(5-(2-(4-(2-((2S)-1-((2R)-2-(dimethylamino)-2-phenylacetyl)-2-pyrrolidinyl)-1H-imidazol-5-yl)phenyl)-5-pyrimidinyl)-1H-imidazol-2-yl)ethyl)-2-phenylacetamide] | 0.001 to 0.999
12 | COC(=O)N[C@@H](C(=O)N[C@@H](C)c1ncc(-c2cnc(-c3ccc(-c4cnc([C@@H]5CCCN5C(=O)[C@H](NC(=O)OC)c5ccccc5)[nH]4)cc3)nc2)[nH]1)c1ccccc1 [Example 152j-17, methyl ((1R)-2-((2S)-2-(5-(4-(5-(2-((1S)-1-(((2R)-2-((methoxycarbonyl)amino)-2-phenylacetyl)amino)ethyl)-1H-imidazol-5-yl)-2-pyrimidinyl)phenyl)-1H-imidazol-2-yl)-1-pyrrolidinyl)-2-oxo-1-phenylethyl)carbamate] | 0.001 to 0.999
13 | C[C@H](NC(=O)[C@@H](c1ccccc1)N(C)C)c1ncc(-c2cnc(-c3ccc(-c4cnc([C@@H]5CCCN5C(=O)[C@@H](c5ccccc5)N(C)C)[nH]4)cc3)cn2)[nH]1 [Example 152j-18, (2R)-2-(dimethylamino)-N-((1S)-1-(5-(5-(4-(2-((2S)-1-((2R)-2-(dimethylamino)-2-phenylacetyl)-2-pyrrolidinyl)-1H-imidazol-5-yl)phenyl)-2-pyrazinyl)-1H-imidazol-2-yl)ethyl)-2-phenylacetamide] | 0.001 to 0.999
14 | COC(=O)N[C@@H](C(=O)N[C@@H](C)c1ncc(-c2cnc(-c3ccc(-c4cnc([C@@H]5CCCN5C(=O)[C@H](NC(=O)OC)c5ccccc5)[nH]4)cc3)cn2)[nH]1)c1ccccc1 [Example 152j-19, methyl ((1R)-2-((2S)-2-(5-(4-(5-(2-((1S)-1-(((2R)-2-((methoxycarbonyl)amino)-2-phenylacetyl)amino)ethyl)-1H-imidazol-5-yl)-2-pyrazinyl)phenyl)-1H-imidazol-2-yl)-1-pyrrolidinyl)-2-oxo-1-phenylethyl)carbamate] | 0.001 to 0.999
15 | COC(=O)N[C@@H](C(=O)N(C)[C@@H](C)c1ncc(-c2ccc(-c3ncc(-c4cnc([C@@H]5CCCN5C(=O)[C@H](NC(=O)OC)c5ccccc5)[nH]4)cn3)cc2)[nH]1)c1ccccc1 [Example 152j-21, methyl ((1R)-2-((2S)-2-(5-(2-(4-(2-((1S)-1-(((2R)-2-((methoxycarbonyl)amino)-2-phenylacetyl)(methyl)amino)ethyl)-1H-imidazol-5-yl)phenyl)-5-pyrimidinyl)-1H-imidazol-2-yl)-1-pyrrolidinyl)-2-oxo-1-phenylethyl)carbamate] | 0.001 to 0.999
16 | COC(=O)N[C@@H](C(=O)N[C@@H](C)c1ncc(-c2ccc(-c3ccc(-c4cnc([C@@H]5CCCN5C(=O)[C@H](NC(=O)OC)c5ccccc5)[nH]4)cc3)nc2)[nH]1)c1ccccc1 [Example 152j-22, methyl ((1R)-2-((2S)-2-(5-(4-(5-(2-((1S)-1-(((2R)-2-((methoxycarbonyl)amino)-2-phenylacetyl)amino)ethyl)-1H-imidazol-5-yl)-2-pyridinyl)phenyl)-1H-imidazol-2-yl)-1-pyrrolidinyl)-2-oxo-1-phenylethyl)carbamate] | 0.001 to 0.999
17 | COC(=O)N[C@@H](C(=O)N[C@@H](C)c1ncc(-c2ccc(-c3ccc(-c4cnc([C@H](C)NC(=O)[C@H](NC(=O)OC)c5ccccc5)[nH]4)cn3)cc2)[nH]1)c1ccccc1 [Example 152j-23, methyl ((1R)-2-(((1S)-1-(5-(6-(4-(2-((1S)-1-(((2R)-2-((methoxycarbonyl)amino)-2-phenylacetyl)amino)ethyl)-1H-imidazol-5-yl)phenyl)-3-pyridinyl)-1H-imidazol-2-yl)ethyl)amino)-2-oxo-1-phenylethyl)carbamate] | 0.001 to 0.999
18 | C[C@H](NC(=O)[C@@H](c1ccccc1)N(C)C)c1ncc(-c2ccc(-c3ccc(-c4cnc([C@H](C)NC(=O)[C@@H](c5ccccc5)N(C)C)[nH]4)cn3)cc2)[nH]1 [Example 152j-24, (2R)-2-(dimethylamino)-N-((1S)-1-(5-(6-(4-(2-((1S)-1-(((2R)-2-(dimethylamino)-2-phenylacetyl)amino)ethyl)-1H-imidazol-5-yl)phenyl)-3-pyridinyl)-1H-imidazol-2-yl)ethyl)-2-phenylacetamide] | 0.001 to 0.999
19 | COC(=O)N[C@@H](C(=O)N[C@@H](C)c1ncc(-c2ccc(-c3cnc(-c4cnc([C@@H]5CCCN5C(=O)[C@H](NC(=O)OC)c5ccccc5)[nH]4)cn3)cc2)[nH]1)c1ccccc1 [Example 152j-28, methyl ((1R)-2-((2S)-2-(5-(5-(4-(2-((1S)-1-(((2R)-2-((methoxycarbonyl)amino)-2-phenylacetyl)amino)ethyl)-1H-imidazol-5-yl)phenyl)-2-pyrazinyl)-1H-imidazol-2-yl)-1-pyrrolidinyl)-2-oxo-1-phenylethyl)carbamate] | 0.001 to 0.999
